# [L-RNA-N] = L-ribonucleotide (mirror-image RNA) unit (N: the base)
# How the values were obtained:
# [1] = tested on: hTERC rG4 WT; assay: Dual-luciferase reporter assay, hTERC rG4 WT, HEK 293T cells; assay type: cell-based, human
# Procedure: (§1) The DNA sequences encoding hTERC rG4 WT, hTERC rG4 Mut, NRAS rG4 WT, NRAS rG4 Mut, APP rG4 WT, and APP rG4 Mut (Table 1) were respectively introduced into the 5′UTR of the renilla luciferase gene in the psiCHECK-2 vector. 2×10^4 HeLa cells were seeded on 96-well black-wall plates. In sequential addition assay, 10 ng WT and Mut plasmids were transfected to cells by LIPOFECTAMINE® 2000 separately. Subsequently, Tamra_Ahx_R8, Tamra_Ahx_R8_L-Apt.4-1c, and L-Apt.4-1c (0, 100 nM, 200 nM) were separately added to cells after being washed with phosphate buffered saline (PBS) at 4 hours post-transfection and incubated for 48 hours. In co-transfection assay, 10 ng WT or Mut plasmid was co-transfected with Tamra_Ahx_R8, Tamra_Ahx_R8_L-Apt.4-1c, and L-Apt.4-1c (0, 100 nM, 200 nM) separately to cells by LIPOFECTAMINE® 2000 and incubated for 48 hours. Luciferase activity was determined by microplate reader. The renilla activity was normalized to firefly activity for data analysis.
# [2] = tested on: hTERC rG4 WT; assay: Dual-luciferase reporter gene assay, hTERC rG4 WT, HeLa cells; assay type: cell-based, human; conditions: 200 nM, 48 hours
# Procedure: as §1
substance,measurement,setting,value
"L-Apt.4-1c: the L-RNA aptamer of SEQ ID NO: 1 (GCCCUAAAGGUGGUGGUGGGAGGGC), non-conjugated control (all [L-RNA-N], backbone not given here)","Effect on normalized luciferase activity, hTERC rG4 WT construct",[1],cannot regulate luciferase activity
same,"Effect on normalized luciferase activity, hTERC rG4 WT construct","[2]; co-transfection with plasmid by LIPOFECTAMINE 2000, 0, 100 nM",only functioned well in co-transfection method
same,"Effect on normalized luciferase activity, hTERC rG4 WT construct","[2]; sequential addition, absence of transfection reagent, 0, 100 nM",neither Tamra_Ahx_R8 peptide nor L-Apt.4-1c modulated luciferase activity
